According to patent EP3643303A1, “COMPOUNDS FOR USE IN THE TREATMENT OR PREVENTION OF FIBROTIC DISEASES; PHARMACEUTICAL, COSMETIC COMPOSITIONS AND USES THEREOF” (InnovativeHealth Group SL, priority 2018, dated 2020):

Experiments:
human COL1A2 promoter = experiment: Col1A2 gene transcriptional activity (luciferase) in NIH-3T3-Col1A2-luc cells stimulated with TGFβ; format: cell-based, mouse; settings: TGFβ 10 ng/ml, 24 h; Figure 3
Excerpt: The effect of CBD isomers on collagen transcriptional regulation in NIH-3T3 cells stably expressing the Col1A2-luc plasmid, which encodes the gene promoter of the pro-alpha2 chain component of type I collagen fused to the luciferase gene, was studied. NIH-3T3-COL1A2-Luc fibroblast cells were generated by stable transfection of the COL-1A2-Luc plasmid, containing sequences from -353 to +58 bp of the human COL1A2 promoter fused to the luciferase reporter gene, and pPURO plasmid. Cells are cultivated at a density of 1 x 10^4 cells/ml for 24 h at 37°C. Then the cells were treated with the CBD isomers at several concentrations and TGFβ (10 ng/ml) for 24 h. Then, the cells are washed with PBS and lysed in 50 µl lysis buffer containing 25 mM Tris-phosphate (pH 7.8), 8 mM MgCl2, 1 mM DTT, 1% Triton X-100, and 7% glycerol during 15 min. Luciferase activity and protein concentration is measured in the cell lysates, to calculate the RLU/µg of protein and the results expressed as the percentage of induction considering the value obtained with TGFβ as 100% activation. The protein concentration in the cell extracts was measured by the Bradford method (BioRad).

human CB1 = molecular target: T1, human CB1 (Homo sapiens, UniProt P21554); experiment: CB1 antagonism assay (CRE-Luc reporter) in HEK-293T-CB1 cells stimulated with WIN-55,212-2; format: cell-based; settings: 15 min preincubation, then WIN-55,212-2 for 6 h; CRE-Luc luciferase; Figure 1
T1 construct: HEK-293T-CB1 (stably transfected with CB1 cDNA); expressed in transfected cells; host or cells: HEK-293T
Protocol: To investigate the biological activities of the CBD enantiomers on CB1 and TRPV1 receptors were performed functional assays in both HEK-293T-CB1 and HEK-293T-TRPV1 cells, which overexpress human CB1 and TRPV-1 receptors respectively. HEK-293T-CB1 (stably transfected with CB1 cDNA) were maintained in supplemented DMEM medium containing 10% FBS and 1% antibiotics penicillin/streptomycin (DMEM complete medium) at 37°C in a humidified atmosphere of 5% CO2. The cells were incubated in 24-well plates (1x10^5 cell/ml) and transiently transfected with 0,1 µg/ml of the plasmid CRE-Luc that contains six consensus cAMP responsive elements (CRE) linked to firefly luciferase. Transient transfections were performed with Rotifect (Carl Roth GmbH, Karlsruhe, Germany) according to the manufacturer's instructions and harvested 24 h after transfection. For CB1 antagonistic activity the transfected cells were incubated with increasing concentrations of the CBD enantiomers for 15 min and then stimulated with WIN-55, 212-2 (CB1 agonist), during 6 h and then luciferase activity measured in the cell lysates. […]

TRPV-1 = TRPV-1 (Homo sapiens, UniProt Q8NER1); settings: Bisogno et al. 2001; cited from earlier work
[1] = test system: activated hepatic stellate cells; settings: Lim et al. 2011; cited from earlier work
[2] = test system: diabetes-associated myocardial fibrosis; settings: Rajesh et al. 2010; cited from earlier work
BLM-induced fibrosis = experiment: Bleomycin (BLM) mouse model of skin fibrosis, histology and observation; format: in vivo, Mice
Protocol: The bleomycin (BLM) mice model is widely used to evaluate potential anti-inflammatory and anti-fibrotic therapies for SSc. BLM causes inflammation in a short period of time, characterized by elevation of proinflammatory cytokines and growth factors that peak around day 14 of BLM exposure. […] The inflammatory model of SSc was used to study (-)CBD preventive effects. Fibrosis was induced by daily subcutaneous administration of BLM (50 µg/mice; 100 µl) (Mylan, Barcelona, Spain) for 3 weeks. Treatments were administered in parallel and consisted of daily intraperitoneal (i.p.) injections of (-)CBD (20 mg/kg), or vehicle (4% DMSO, 6.2% Tween20, saline; 100 µl). Subcutaneous injections of 0.9% NaCl served as a control. Mice were acclimated to manipulators for a week previously to the experiments in order to reduce stress and allow the detection of subtle changes in behavior by researchers. […] Mice were sacrificed by cervical dislocation and the back skin was removed and processed for histological examination or was frozen for further analysis.
Mast cells degranulation as well as macrophages and lymphocyte accumulation are the hallmark of BLM-induced fibrosis and play important roles during the inflammatory phase of SSc. Mast cells degranulation can be identified by toluidine blue staining and macrophage accumulation by staining with a mAb that identifies F4/80^+ cells. Skin sections ([…]) were stained toluidine blue. For immunohistochemical detection of macrophages F4/80 (1:50; MCA497, Bio-Rad) antibody was used. Slides were developed with diaminobenzidine chromogen (Merck Millipore) and counterstained in Harris hematoxylin. Slides were photographed, digitalized using a Leica DFC420c camera and analyzed using Image J software.

NHDFs = experiment: Fibroblast migration scratch (wound healing) assay in NHDFs; format: cell-based, human; settings: Figure 6
Protocol: Migration of skin fibroblast plays a crucial role not only in normal wound healing but also in fibrotic diseases. To further analyze this point, it was tested if the anti-fibrotic effect of (-)CBD could be associated with reduced fibroblast migration. To investigate this possibility, the effect of (-)CBD on TGFβ-induced wound healing was investigated. NHDFs (2x10^3 cells) were seeded in complete DMEM in a 96-well Essen ImageLock plates (Essen BioScience). When cells reached confluence, wound scratches were made using the 96-pin WoundMaker (Essen BioScience). Then, culture medium was replaced by DMEM supplemented with 1% antibiotics and with mitomycin C (10 ng/ml) to block cell proliferation. (-)CBD and TGFβ1 10 ng/ml were added in parallel. Wound healing activity was analyzed using IncuCyte HD system by taking images every 3 h for 48 h and the percentage of wound confluence calculated with the IncuCyte software.

[3] = BLM 3 weeks, 20 mg/kg i.p. daily, Figure 8

TRPV-1, sequence (Q8NER1 whole entry, species assumed): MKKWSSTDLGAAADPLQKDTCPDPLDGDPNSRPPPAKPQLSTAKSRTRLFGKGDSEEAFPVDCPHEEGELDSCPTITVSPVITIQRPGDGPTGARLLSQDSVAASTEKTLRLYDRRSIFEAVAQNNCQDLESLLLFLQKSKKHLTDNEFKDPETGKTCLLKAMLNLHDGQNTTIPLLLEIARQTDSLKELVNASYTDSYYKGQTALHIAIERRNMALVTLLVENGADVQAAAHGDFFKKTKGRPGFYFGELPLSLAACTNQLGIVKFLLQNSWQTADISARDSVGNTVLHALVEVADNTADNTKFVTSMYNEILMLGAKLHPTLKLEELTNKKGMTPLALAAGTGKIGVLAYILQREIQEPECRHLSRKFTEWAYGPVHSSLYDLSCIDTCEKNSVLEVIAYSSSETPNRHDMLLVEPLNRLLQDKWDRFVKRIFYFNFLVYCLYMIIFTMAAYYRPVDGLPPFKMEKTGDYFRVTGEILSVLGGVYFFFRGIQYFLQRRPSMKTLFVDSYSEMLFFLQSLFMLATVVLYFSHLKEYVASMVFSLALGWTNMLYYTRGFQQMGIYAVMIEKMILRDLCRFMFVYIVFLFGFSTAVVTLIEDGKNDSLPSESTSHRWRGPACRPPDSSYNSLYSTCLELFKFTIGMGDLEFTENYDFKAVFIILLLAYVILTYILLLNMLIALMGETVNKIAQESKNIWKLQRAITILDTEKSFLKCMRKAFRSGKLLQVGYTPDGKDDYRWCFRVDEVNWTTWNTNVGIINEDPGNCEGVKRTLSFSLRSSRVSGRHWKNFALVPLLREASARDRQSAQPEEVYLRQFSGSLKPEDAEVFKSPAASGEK
T1 sequence (P21554 whole entry): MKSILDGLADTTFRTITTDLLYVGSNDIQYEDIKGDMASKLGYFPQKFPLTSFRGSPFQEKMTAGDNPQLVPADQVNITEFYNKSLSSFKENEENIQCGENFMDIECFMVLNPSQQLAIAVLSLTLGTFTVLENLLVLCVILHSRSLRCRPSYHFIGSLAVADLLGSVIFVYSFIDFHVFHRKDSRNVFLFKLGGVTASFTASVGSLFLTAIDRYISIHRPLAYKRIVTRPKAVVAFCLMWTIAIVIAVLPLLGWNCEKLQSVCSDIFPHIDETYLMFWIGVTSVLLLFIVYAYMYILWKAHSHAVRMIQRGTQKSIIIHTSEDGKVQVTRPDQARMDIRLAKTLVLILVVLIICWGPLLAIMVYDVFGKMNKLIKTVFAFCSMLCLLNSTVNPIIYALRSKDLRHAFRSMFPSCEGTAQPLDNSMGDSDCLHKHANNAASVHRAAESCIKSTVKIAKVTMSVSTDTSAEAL

| Compound | collagen promoter transcriptional activity (human COL1A2 promoter) | CB1 antagonistic activity (human CB1) | activity of the TRPV-1 (TRPV-1) | cell death of activated hepatic stellate cells [1] | diabetes-associated myocardial fibrosis [2] | dermal thickness (BLM-induced fibrosis; [3]) | loss of adipose tissue layer induced by BLM (BLM-induced fibrosis; [3]) | piloerection, hunched appearances (BLM-induced fibrosis; during the experimental procedures, 20 mg/kg i.p. daily) | behavioral changes (BLM-induced fibrosis; during the protocols, 20 mg/kg i.p. daily) | Mice weight (BLM-induced fibrosis; evaluated weekly, between experimental groups, 20 mg/kg i.p. daily) | infiltration of F4/80^+ macrophages (BLM-induced fibrosis; immunostaining, versus BLM untreated mice, 20 mg/kg i.p., Figure 10) | number of degranulated mast cells in the lesioned skin (BLM-induced fibrosis; toluidine blue, BLM 3 weeks, 20 mg/kg i.p., Figure 9) | wound closure induced by TGFβ1 (NHDFs; TGFβ1 10 ng/ml, 48 h, concentration-dependent) | wound closure induced by rhIL-4 (NHDFs; rhIL-4, concentration-dependent) |
| --- | --- | --- | --- | --- | --- | --- | --- | --- | --- | --- | --- | --- | --- | --- |
| C=C(C)[C@H]1CCC(C)=C[C@@H]1c1c(O)cc(CCCCC)cc1O [(+)CBD, (+)Cannabidiol] | significantly reduced | clear CB1 antagonistic activity | modulated | – | – | – | – | – | – | – | – | – | – | – |
| C=C(C)[C@@H]1CCC(C)=C[C@H]1c1c(O)cc(CCCCC)cc1O [(-)CBD, 2-[(1R,6R)-3-methyl-6-prop-1-en-2-ylcyclohex-2-en-1-yl]-5-pentylbenzene-1,3-diol] | significantly reduced | clear CB1 antagonistic activity | modulated | induces cell death | attenuates | attenuated | not were able to recover | Neither piloerection nor hunched appearances were appreciated | No behavioral changes | no significant changes | significantly reduced | prevented | significantly attenuated | significantly attenuated |
